# In article PMC11879040, “Advancing systemic toxicity risk assessment: Evaluation of a NAM-based toolbox approach” (Toxicological Sciences, 2024):
# Read-outs that look alike come from different tables or passages of the source. Peptide text beside a SMILES is read from it.
# Tests used:
# rat = conditions: rat, cited from earlier work; for PoD (NOAEL): ref ToxRefDB/Paul-Friedman et al. (2020)/regulatory opinions
# [1] = test system: Glutamate receptor ionotropic NMDA 1 non-selective, GRIN1 (r); conditions: control CGS 19755
# [2] = biological target: T1, Adenosine receptor A2a, ADORA2A (h) (Homo sapiens, UniProt P29274); assay: IPP ADORA2A binding (agonist radioligand); conditions: control NECA
# T1 construct: purchased Eurofins Cerep (SafetyScreen44-based IPP panel)
# T1 sequence (P29274 whole entry): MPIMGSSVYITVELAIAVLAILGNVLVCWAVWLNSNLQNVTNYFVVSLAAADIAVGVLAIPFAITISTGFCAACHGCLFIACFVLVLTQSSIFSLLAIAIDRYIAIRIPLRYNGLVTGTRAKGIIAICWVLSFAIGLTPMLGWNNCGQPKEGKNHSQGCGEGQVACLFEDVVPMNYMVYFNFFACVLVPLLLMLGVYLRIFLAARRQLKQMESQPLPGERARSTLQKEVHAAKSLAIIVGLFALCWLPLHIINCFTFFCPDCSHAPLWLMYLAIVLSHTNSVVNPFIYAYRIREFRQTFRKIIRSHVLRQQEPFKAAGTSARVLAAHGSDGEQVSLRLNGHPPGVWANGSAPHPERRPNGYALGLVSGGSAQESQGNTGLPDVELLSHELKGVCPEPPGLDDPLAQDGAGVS
# Tubulin (r) = assay: IPP Tubulin binding; parameters: species or system rat; conditions: ligand/control Colchicine
# [3] = biological target: Potassium voltage-gated channel subfamily H member 2 hERG, KCNH2 (h) (Homo sapiens, UniProt Q12809); conditions: [3H] Dofetilide, control Terfenadine
# Sequence of Potassium voltage-gated channel subfamily H member 2 hERG, KCNH2 (h) (Q12809 whole entry): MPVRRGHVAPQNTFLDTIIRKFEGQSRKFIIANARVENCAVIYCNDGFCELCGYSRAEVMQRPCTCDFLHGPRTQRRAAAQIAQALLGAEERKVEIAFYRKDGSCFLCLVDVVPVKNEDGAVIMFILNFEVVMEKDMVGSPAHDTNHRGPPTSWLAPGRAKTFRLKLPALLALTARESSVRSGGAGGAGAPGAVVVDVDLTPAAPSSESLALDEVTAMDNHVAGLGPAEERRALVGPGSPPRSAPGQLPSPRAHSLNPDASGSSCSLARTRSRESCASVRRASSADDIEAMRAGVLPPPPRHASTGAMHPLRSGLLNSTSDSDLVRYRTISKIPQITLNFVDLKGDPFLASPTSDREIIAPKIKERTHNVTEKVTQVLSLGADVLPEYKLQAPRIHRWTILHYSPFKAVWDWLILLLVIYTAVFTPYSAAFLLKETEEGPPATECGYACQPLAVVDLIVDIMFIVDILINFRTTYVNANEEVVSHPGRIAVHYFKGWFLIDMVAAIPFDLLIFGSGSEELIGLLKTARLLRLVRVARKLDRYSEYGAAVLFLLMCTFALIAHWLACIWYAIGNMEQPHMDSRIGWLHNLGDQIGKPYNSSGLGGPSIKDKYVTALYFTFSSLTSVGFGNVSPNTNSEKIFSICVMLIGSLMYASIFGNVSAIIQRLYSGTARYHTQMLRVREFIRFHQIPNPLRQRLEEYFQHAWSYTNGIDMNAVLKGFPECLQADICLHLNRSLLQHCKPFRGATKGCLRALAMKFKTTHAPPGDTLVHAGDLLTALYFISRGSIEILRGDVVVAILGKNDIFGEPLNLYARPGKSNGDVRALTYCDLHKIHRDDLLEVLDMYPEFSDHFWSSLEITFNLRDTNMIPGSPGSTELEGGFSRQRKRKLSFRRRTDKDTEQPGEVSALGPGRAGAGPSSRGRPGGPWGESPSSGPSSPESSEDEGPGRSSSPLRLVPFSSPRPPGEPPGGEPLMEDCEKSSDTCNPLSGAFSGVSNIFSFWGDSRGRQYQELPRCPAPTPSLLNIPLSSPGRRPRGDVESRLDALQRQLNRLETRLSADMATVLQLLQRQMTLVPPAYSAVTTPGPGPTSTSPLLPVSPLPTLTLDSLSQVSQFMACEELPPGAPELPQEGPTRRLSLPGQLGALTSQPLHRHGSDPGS
# [4] = biological target: T2, Estrogen receptor, ER1 (h) (Homo sapiens, UniProt P03372); assay: IPP ER1 coactivator recruitment (agonist); format: biochemical; conditions: estriol
# T2 construct: purchased Eurofins Cerep (SafetyScreen44-based IPP panel)
# T2 sequence (P03372 1-595): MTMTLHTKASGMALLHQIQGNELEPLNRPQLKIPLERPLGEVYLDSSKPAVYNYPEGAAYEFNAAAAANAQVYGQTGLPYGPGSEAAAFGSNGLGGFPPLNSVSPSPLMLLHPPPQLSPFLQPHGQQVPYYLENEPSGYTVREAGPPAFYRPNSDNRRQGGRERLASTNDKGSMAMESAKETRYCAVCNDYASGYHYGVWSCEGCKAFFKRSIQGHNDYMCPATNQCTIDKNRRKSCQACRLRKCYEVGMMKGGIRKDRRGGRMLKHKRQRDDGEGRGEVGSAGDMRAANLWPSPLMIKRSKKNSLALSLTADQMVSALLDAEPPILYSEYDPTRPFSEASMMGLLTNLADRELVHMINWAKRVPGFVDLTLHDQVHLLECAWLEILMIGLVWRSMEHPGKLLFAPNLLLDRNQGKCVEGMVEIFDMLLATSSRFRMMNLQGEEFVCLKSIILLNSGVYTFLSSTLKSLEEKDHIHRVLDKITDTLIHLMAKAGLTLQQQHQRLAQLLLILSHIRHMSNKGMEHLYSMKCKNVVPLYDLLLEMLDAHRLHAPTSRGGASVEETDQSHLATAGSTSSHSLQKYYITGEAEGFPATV
# [5] = test system: Potassium Voltage-Gated Channel Kv non-selective, KCNQ1 (r); assay: IPP KCNQ1 binding (antagonist radioligand); parameters: species or system rat; conditions: control α-dendrotoxin
# MCF7 cells = assay: High-throughput transcriptomics (HTTr, TempO-Seq), MCF7, 24 h; format: cell-based, human; conditions: MCF-7; for pod_httr_bifrost PoD: HTTr BIFROST PoD; for podl_path_minbmd PoD: HTTr minimum pathway BMD(L)
# Experimental: (§1) HepG2, HepaRG, and MCF7 cells were treated with each compound for 24 h across a dose range of 7 concentrations and lysed using TempO-Seq lysis buffer (BioSpyder Technologies, proprietary kit, see [Middleton et al. 2022] for method details). Sequencing was performed using TempO-Seq (BioClavis) version 2 of the human whole transcriptome panel and analyzed as described previously in Middleton et al.
# HepG2 cells [6] = assay: Cell stress panel (CSP), 24 h, 8 concentrations, BIFROST global PoD; format: cell-based; conditions: for pod_cell_stress PoD: HepG2, cell stress panel PoD
# Experimental: Compounds were tested using the previously developed cell stress panel ([Hatherell et al. 2020]) and the expanded biomarker panel outlined in Middleton et al. HepG2 cells were treated with all compounds for 24 h across 8 concentrations prior to biomarker analysis. The same plate layout and number of replicates (3 biological and 2 technical) were used as previously for each assay within the panel.
# [7] = biological target: T2, Estrogen receptor, ER1 (h); assay: IPP ER1 coactivator recruitment (antagonist); format: biochemical; conditions: estriol
# HepaRG cells = assay: High-throughput transcriptomics (HTTr, TempO-Seq), HepaRG, 24 h; format: cell-based, human; conditions: HepaRG; for pod_httr_bifrost PoD: HTTr BIFROST PoD; for podl_path_minbmd PoD: HTTr minimum pathway BMD(L)
# Experimental: as §1
# [8] = test system: Gamma-aminobutyric acid receptor subunit alpha-1 BZD site, GABRA1A (r); format: binding, rat; conditions: control diazepam
# [9] = biological target: T3, Pregnane X receptor PXR, NR1I2 (h) (Homo sapiens, UniProt O75469); assay: IPP PXR coactivator recruitment (antagonist); conditions: ligand T0901317
# T3 sequence (O75469 1-434): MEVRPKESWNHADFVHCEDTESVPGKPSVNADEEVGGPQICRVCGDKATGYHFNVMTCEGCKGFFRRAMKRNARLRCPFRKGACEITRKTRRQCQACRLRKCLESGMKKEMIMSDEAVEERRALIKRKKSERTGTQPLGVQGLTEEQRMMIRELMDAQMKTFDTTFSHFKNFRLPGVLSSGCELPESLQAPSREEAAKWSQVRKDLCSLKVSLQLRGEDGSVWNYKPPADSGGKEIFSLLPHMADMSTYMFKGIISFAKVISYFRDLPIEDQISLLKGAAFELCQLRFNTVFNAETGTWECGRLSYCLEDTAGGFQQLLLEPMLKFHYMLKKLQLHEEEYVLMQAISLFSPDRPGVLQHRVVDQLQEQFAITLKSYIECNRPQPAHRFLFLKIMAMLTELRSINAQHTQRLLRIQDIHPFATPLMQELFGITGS
# HepG2 cells [10] = assay: High-throughput transcriptomics (HTTr, TempO-Seq), HepG2, 24 h; format: cell-based, human; conditions: HepG2; for pod_httr_bifrost PoD: HTTr BIFROST PoD; for podl_path_minbmd PoD: HTTr minimum pathway BMD(L)
# Experimental: as §1
# [11] = test system: Sodium channel protein type 5 subunit alpha (site 2), SCN5A (r); format: binding, rat; conditions: control veratridine
# [12] = test system: Thyroid hormone receptor alpha, THRA (h); assay: IPP THRA coactivator recruitment (agonist); format: biochemical, human; conditions: agonist, T3
# [13] = PBK level L2; taken or scaled from references (median where several); ref [6],[7],[10],[19]; cited from earlier work
# [14] = biological target: T3, Pregnane X receptor PXR, NR1I2 (h); assay: IPP PXR coactivator recruitment (agonist); conditions: T0901317 for control
# [15] = Assignment of risk classifications to benchmark chemical-exposure scenarios; conditions: for risk: from table S1
# [16] = cited from earlier work
# [17] = PBK level L2; single value or median; ref [2],[4],[6],[7],[8],[10],[11],[15],[18],[27],[34]; cited from earlier work
# [18] = test system: 63 targets with known safety liabilities; assay: In vitro pharmacological profiling (IPP) panel, screening at 10 or 100 µM and dose response, minimum IC50/AC50; format: biochemical; conditions: lowest AC50 across IPP panel (systemic targets); cell_type -; read-out: ipp_lowest_ac50_systemic PoD
# [19] = PBK level L2; at the given pH; single value or median; ref [1],[4],[5],[10],[11],[17],[26]; cited from earlier work
# [20] = biological target: Voltage-dependent L-type Ca2+ channel (dihydropyridine site), CACNA1C (r) (Rattus norvegicus, UniProt P22002); format: binding; conditions: IPP screening at 10 uM; control nitrendipine
# Sequence of Voltage-dependent L-type Ca2+ channel (dihydropyridine site), CACNA1C (r) (P22002 whole entry): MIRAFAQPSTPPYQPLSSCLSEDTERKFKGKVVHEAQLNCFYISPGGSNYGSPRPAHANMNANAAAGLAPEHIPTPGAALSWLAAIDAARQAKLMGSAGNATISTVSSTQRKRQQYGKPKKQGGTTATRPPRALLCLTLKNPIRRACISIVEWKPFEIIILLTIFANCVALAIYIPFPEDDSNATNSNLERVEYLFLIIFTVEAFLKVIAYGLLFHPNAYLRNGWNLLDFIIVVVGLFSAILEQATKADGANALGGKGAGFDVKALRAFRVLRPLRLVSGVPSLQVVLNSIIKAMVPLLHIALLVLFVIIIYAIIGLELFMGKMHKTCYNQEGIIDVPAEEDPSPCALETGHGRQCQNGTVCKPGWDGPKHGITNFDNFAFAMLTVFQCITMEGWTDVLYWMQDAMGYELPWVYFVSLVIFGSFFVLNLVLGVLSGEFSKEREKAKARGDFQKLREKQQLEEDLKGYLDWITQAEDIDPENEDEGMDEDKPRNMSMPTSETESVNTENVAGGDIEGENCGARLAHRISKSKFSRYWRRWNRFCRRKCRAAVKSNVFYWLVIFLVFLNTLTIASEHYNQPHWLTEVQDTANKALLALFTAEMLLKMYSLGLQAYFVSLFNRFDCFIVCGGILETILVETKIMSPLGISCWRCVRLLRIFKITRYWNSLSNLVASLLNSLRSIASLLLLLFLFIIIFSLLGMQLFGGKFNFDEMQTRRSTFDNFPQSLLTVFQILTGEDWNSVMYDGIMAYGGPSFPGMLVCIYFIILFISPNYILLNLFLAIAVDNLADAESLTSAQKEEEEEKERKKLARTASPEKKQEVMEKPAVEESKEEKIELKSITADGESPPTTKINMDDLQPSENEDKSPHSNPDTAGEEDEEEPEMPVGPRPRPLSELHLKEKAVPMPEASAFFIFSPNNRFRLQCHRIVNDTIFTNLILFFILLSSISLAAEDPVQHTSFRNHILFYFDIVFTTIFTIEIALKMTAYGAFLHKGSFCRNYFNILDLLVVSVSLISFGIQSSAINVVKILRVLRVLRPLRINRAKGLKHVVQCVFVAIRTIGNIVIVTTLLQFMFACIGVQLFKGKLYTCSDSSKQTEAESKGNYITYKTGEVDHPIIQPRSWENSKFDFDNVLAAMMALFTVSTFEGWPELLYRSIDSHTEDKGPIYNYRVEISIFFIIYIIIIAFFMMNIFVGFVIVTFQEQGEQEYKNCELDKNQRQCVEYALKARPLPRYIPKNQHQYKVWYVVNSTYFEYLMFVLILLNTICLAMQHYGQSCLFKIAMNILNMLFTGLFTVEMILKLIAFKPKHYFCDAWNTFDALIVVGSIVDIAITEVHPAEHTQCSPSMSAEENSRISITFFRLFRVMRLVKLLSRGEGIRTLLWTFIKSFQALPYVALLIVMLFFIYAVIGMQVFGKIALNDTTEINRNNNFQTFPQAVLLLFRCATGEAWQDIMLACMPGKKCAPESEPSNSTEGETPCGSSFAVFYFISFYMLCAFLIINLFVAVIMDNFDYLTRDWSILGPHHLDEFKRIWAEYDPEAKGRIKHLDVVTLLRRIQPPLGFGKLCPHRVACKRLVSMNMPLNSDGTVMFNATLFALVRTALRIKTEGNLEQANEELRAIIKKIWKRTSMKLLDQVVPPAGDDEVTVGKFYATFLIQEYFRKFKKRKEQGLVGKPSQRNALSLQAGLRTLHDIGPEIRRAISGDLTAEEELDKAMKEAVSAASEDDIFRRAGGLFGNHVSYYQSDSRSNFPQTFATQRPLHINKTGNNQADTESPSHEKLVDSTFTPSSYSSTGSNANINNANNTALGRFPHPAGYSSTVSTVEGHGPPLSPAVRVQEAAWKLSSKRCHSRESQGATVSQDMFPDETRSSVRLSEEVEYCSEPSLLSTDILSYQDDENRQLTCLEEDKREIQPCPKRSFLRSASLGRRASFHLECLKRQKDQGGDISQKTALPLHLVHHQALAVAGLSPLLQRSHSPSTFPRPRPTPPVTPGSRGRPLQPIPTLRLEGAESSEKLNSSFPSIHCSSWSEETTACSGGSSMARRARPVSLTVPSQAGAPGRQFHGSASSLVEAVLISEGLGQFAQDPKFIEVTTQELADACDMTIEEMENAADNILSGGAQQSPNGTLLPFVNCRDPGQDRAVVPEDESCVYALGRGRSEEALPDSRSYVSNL
# [21] = 100 uM, * denotes assay interference (2-Amino-6-chloro-4-nitrophenol, HC Red 3)
Compound,pod_httr_bifrost PoD (MCF7 cells) [µM],podl_path_minbmd PoD (MCF7 cells) [µM],Bioactivity Observations: cell stress panel (HepG2 cells [6]),pod_cell_stress PoD (HepG2 cells [6]) [µM],pod_httr_bifrost PoD (HepaRG cells) [µM],podl_path_minbmd PoD (HepaRG cells) [µM],pod_httr_bifrost PoD (HepG2 cells [10]) [µM],podl_path_minbmd PoD (HepG2 cells [10]) [µM],Intrinsic Liver Clearance [13] [L/h],Specific binding ([1]; IPP screening at 10 uM) [%],Specific binding ([2]; IPP screening at 10 uM) [%],"IPP screening %, Specific binding (Tubulin (r); 10 uM) [%]","IPP screening %, Specific binding ([3]; 10 uM) [%]",Specific binding ([5]; IPP screening at 10 uM) [%],Specific binding ([8]; IPP screening at 10 uM) [%],"IPP screening %, Coactivator recruitment ([9]; 10 uM) [%]",Specific binding ([11]; IPP screening at 10 uM) [%],"IPP screening %, Coactivator recruitment ([12]; 10 uM) [%]","IPP screening %, Coactivator recruitment ([14]; 10 uM) [%]",also measured
"COC(=O)[C@H](Cc1ccccc1)NC(=O)[C@@H](N)CC(=O)O [Aspartame, Methyl L-alpha-aspartyl-L-phenylalaninate] (H-Asp-Phe-OMe)",423.587,2500,the CSP shows some small effects on PGC1alpha/Nrf2 and the ECAR (seahorse),536.875,853.753,2500,1509.3,2500,400.2,,,,,,,,,,,"PoD (NOAEL) (rat; 38 days, developmental neurotoxicity study): 1614 mg/kg bw/day; Specific binding ([1]; IPP screening at 100 uM): 24.0%; Specific binding ([2]; IPP screening at 100 uM): 0.3%; IPP screening %, Specific binding (Tubulin (r); 100 uM): -13.0%; IPP screening %, Specific binding ([3]; 100 uM): 1.5%; IPP screening %, Coactivator recruitment [4, 21]: 0.0%; Specific binding ([5]; IPP screening at 100 uM): 2.5%; IPP screening %, Coactivator recruitment [7, 21]: -1.0%; Specific binding ([8]; IPP screening at 100 uM): 7.4%; IPP screening %, Coactivator recruitment ([9]; 100 uM): -11.9%; Specific binding ([11]; IPP screening at 100 uM): 3.9%; IPP screening %, Coactivator recruitment [12, 21]: 2.0%; IPP screening %, Coactivator recruitment ([14]; 100 uM): 15.7%"
"CCCCOC(=O)c1ccc(O)cc1 [Butylparaben, Butyl 4-hydroxybenzoate]",,,,4.378,,,,,799.2,-5.2,5.4,8.0,-13.5,1.5,12.4,6.9,23.9,2.0,3.1,"PoD (LOAEL) (rat; subchronic - 8 weeks, ref Oishi): 10 mg/kg bw/day; Risk Classification ([15]; Dermal […] in Body Lotion): Low risk; risk ([15]; Dermal, […] (regulation says limit is […] as acid), Body lotion, Exp1): 0; BMDL5 ([16]; ref SCCS): 24 mg/kg/day; Real NOAEL ([16]; ref not given): 1000 mg/kg/day; alternative lowest PoD ([16]; studies stated to be flawed, ref Oishi): 14.4 mg/kg/day; Fup [17]: 5.64%"
"O=[N+]([O-])c1cc(C(F)(F)F)c(Cl)c([N+](=O)[O-])c1Nc1ncc(C(F)(F)F)cc1Cl [Fluazinam, 3-Chloro-N-[3-chloro-2,6-dinitro-4-(trifluoromethyl)phenyl]-5-(trifluoromethyl)pyridin-2-amine]",0.1303,0.4999,The seahorse assays within the cell stress panel do report activity and with a very large magnitude of change in the OCR biomarker,0.6023,0.0222,0.4338,0.03634,0.699,,1.2,14.9,9.0,16.2,-3.7,-31.4,111.2,19.6,2.0,-8.8,"PoD (NOAEL) (rat; 104 weeks): 0.38 mg/kg bw/day; IPP screening %, Coactivator recruitment ([4]; 10 uM): -4.0%; AC50 [18]: 430 nM; Risk Classification ([15]; Oral 0.01 mg/kg bw/day): Low risk; Risk Classification ([15]; Oral 32% of 0.01 mg/kg bw/day): Low risk; risk ([15]; Oral, 32% ADI 0.01 mg/kg bw/day, Food residue, Exp1): 0; risk ([15]; Oral, ADI 0.01 mg/kg bw/day, Food residue, Exp2): 0; IPP screening %, Coactivator recruitment ([7]; 10 uM): 46.0%; Aqueous Solubility [19]: 0.95 µg/mL; Specific binding [20]: 99.9%"
